This passage reports DC50 and Dmax results from patent US20260184710A1, “CASITAS B-LINEAGE LYMPHOMA PROTOONCOGENE B (CBL-B) DEGRADING COMPOUNDS AND ASSOCIATED METHODS OF USE” (Arvinas Operations, Inc., priority 2022, published 2026).

The target of this assay is T1, Cbl-b (Homo sapiens, UniProt Q13191).
T1 construct: Cbl-b-HiBit KI Jurkat Cells were purchased from Promega; host or cells: Cbl-b-HiBiT knock-in Jurkat cells
Briefly: Cbl-b Degradation Method B (Nano-Glo HiBiT lytic detection). The following applies: Cbl-b-HiBit KI Jurkat Cells, incubated at least 6-24 hours; for DC50: half maximal degradation, read-out: Cbl-b Degredation Method B IC50; for Dmax: maximum degradation observed, read-out: Cbl-b Degredation Method B Dmax (%). It is filed as cell-based. Summed up:
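Cbl-b-HiBiT knock-in Jurkat cells (20,000/well) were treated after ~24 h plating with an 11-point 1:3 series for 6-24 h at 37° C. Remaining Cbl-b measured by Nano-Glo HiBiT lytic luminescence. DC50 and Dmax expressed as % of control.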

Structures are written as SMILES.

T1 sequence (Q13191 whole entry): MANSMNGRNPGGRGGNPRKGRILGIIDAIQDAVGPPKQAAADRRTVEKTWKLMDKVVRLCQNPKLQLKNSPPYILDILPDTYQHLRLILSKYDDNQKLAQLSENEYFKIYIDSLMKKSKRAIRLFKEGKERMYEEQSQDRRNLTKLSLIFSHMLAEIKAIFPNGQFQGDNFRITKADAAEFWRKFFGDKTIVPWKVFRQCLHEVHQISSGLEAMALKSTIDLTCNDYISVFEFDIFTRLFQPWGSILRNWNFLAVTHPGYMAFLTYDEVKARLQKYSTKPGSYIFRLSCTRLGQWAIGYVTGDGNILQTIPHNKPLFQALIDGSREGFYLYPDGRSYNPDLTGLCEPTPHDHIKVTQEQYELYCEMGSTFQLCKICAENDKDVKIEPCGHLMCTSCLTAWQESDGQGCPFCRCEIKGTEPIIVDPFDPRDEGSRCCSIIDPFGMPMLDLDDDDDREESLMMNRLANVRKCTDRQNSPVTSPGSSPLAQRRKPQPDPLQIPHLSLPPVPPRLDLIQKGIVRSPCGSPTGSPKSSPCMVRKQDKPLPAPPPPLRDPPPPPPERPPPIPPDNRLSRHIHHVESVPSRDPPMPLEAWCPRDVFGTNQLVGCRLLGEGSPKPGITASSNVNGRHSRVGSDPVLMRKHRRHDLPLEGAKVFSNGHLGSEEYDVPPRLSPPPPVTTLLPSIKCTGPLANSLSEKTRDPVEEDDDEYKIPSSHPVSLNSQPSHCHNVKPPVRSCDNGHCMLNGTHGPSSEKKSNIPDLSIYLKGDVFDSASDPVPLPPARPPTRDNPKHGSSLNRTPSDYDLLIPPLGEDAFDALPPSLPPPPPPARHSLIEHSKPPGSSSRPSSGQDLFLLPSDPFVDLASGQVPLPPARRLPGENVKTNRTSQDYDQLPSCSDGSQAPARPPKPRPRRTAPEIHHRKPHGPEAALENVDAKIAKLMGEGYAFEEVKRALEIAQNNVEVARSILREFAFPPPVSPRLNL

Consider `C[C@@H]1C[C@H](CN2CCC(CN3CCC(CN4CCN(c5ccc6c(c5)C(=O)N(C5CCC(=O)NC5=O)C6=O)CC4)CC3)CC2)CN(Cc2cc3c(c(C(F)(F)F)c2)CN(c2cccc(C4(Cc5nncn5C)COC4)c2)C3=O)C1` (stereo partly drawn) [Example 72, 2-(2,6-dioxopiperidin-3-yl)-5-[4-({1-[(1-{[(3R,5R)-5-methyl-1-{[2-(3-{3-[(4-methyl-4H-1,2,4-triazol-3-yl)methyl]oxetan-3-yl}phenyl)-3-oxo-7-(trifluoromethyl)-2,3-dihydro-1H-isoindol-5-yl]methyl}piperidin-3-yl]methyl}piperidin-4-yl)methyl]piperidin-4-yl}methyl)piperazin-1-yl]-2,3-dihydro-1H-isoindole-1,3-dione], for which the DC50 is less than 5 nM and the maximal degradation (Dmax) lay in the range of 35 to 70%. For the compound `C[C@@H]1C[C@H](CN2CCC(CN3CCC(CN4CCN(c5ccc6c(c5)C(=O)N(C5CCC(=O)NC5=O)C6=O)CC4)CC3)CC2)CN(c2cc3c(c(C(F)(F)F)c2)CN(c2cccc(C4(Cc5nncn5C)COC4)c2)C3=O)C1` (stereo partly drawn) [Example 73, 2-(2,6-dioxopiperidin-3-yl)-5-[4-({1-[(1-{[(3R,5R)-5-methyl-1-[2-(3-{3-[(4-methyl-4H-1,2,4-triazol-3-yl)methyl]oxetan-3-yl}phenyl)-3-oxo-7-(trifluoromethyl)-2,3-dihydro-1H-isoindol-5-yl]piperidin-3-yl]methyl}piperidin-4-yl)methyl]piperidin-4-yl}methyl)piperazin-1-yl]-2,3-dihydro-1H-isoindole-1,3-dione], the DC50 lay in the range of 5 to 50 nM and the Dmax lay in the range of 35 to 70%. Take `Cn1cnnc1CC1(c2cccc(N3Cc4c(cc(CN5CCC(CC6CCN(c7ccc8c(c7)C(=O)N(C7CCC(=O)NC7=O)C8=O)CC6)CC5)cc4C(F)(F)F)C3=O)c2)COC1` (stereo not drawn) [Example 78, 2-(2,6-dioxopiperidin-3-yl)-5-{4-[(1-{[2-(3-{3-[(4-methyl-4H-1,2,4-triazol-3-yl)methyl]oxetan-3-yl}phenyl)-3-oxo-7-(trifluoromethyl)-2,3-dihydro-1H-isoindol-5-yl]methyl}piperidin-4-yl)methyl]piperidin-1-yl}-2,3-dihydro-1H-isoindole-1,3-dione]: the DC50 is greater than 500 nM. Regarding `Cn1cnnc1CC1(c2cccc(N3Cc4c(cc(CN5CCC(CN6CCN(c7ccc8c(c7)C(=O)N(C7CCC(=O)NC7=O)C8=O)CC6)C5)cc4C(F)(F)F)C3=O)c2)COC1` (stereo not drawn) [Example 80, 2-(2,6-dioxopiperidin-3-yl)-5-{4-[(1-{[2-(3-{3-[(4-methyl-4H-1,2,4-triazol-3-yl)methyl]oxetan-3-yl}phenyl)-3-oxo-7-(trifluoromethyl)-2,3-dihydro-1H-isoindol-5-yl]methyl}pyrrolidin-3-yl)methyl]piperazin-1-yl}-2,3-dihydro-1H-isoindole-1,3-dione], the DC50 was greater than 500 nM. Consider `Cn1cnnc1CC1(c2cccc(N3Cc4c(cc(CN5CCC[C@H](CN6CCN(C(=O)[C@H]7CC[C@@H](OC8CCN(c9ccc%10c(c9F)CN(C9CCC(=O)NC9=O)C%10=O)CC8)CC7)CC6)C5)cc4C(F)(F)F)C3=O)c2)COC1` (stereo partly drawn) [Example 113, 3-[4-fluoro-1-oxo-5-(4-{[(1r,4r)-4-(4-{[(3S)-1-{[2-(3-{3-[(4-methyl-4H-1,2,4-triazol-3-yl)methyl]oxetan-3-yl}phenyl)-3-oxo-7-(trifluoromethyl)-2,3-dihydro-1H-isoindol-5-yl]methyl}piperidin-3-yl]methyl}piperazine-1-carbonyl)cyclohexyl]oxy}piperidin-1-yl)-2,3-dihydro-1H-isoindol-2-yl]piperidine-2,6-dione], for which the DC50 is less than 5 nM and the maximal degradation (Dmax) is 35 to 70%. The like results for `Cn1cnnc1C[C@]1(c2cccc(N3Cc4c(cc(N5CC6(CCN(C(=O)C7CCN(c8ccc9c(c8)C(=O)N(C8CCC(=O)NC8=O)C9=O)CC7)CC6)C5)cc4C(F)(F)F)C3=O)c2)C[C@H](C#N)C1` (stereo partly drawn) [Example 146, 3-[3-[6-[7-[1-[2-(2,6-dioxo-3-piperidyl)-1,3-dioxo-isoindolin-5-yl]piperidine-4-carbonyl]-2,7-diazaspiro[3.5]nonan-2-yl]-1-oxo-4-(trifluoromethyl)isoindolin-2-yl]phenyl]-3-[(4-methyl-1,2,4-triazol-3-yl)methyl]cyclobutanecarbonitrile] were, in that order, 5 to 50 nM and less than 35%.

With `Cn1cnnc1CC1(c2cccc(-n3cc4ccc(CN5CCC[C@H](CN6CCN(C[C@H]7CC[C@H](OC8CCN(c9ccc%10c(c9F)CN(C9CCC(=O)NC9=O)C%10=O)CC8)CC7)CC6)C5)cc4n3)c2)COC1` (stereo partly drawn) [Example 147, 3-[4-fluoro-5-[4-[4-[[4-[[(3S)-1-[[2-[3-[3-[(4-methyl-1,2,4-triazol-3-yl)methyl]oxetan-3-yl]phenyl]indazol-6-yl]methyl]-3-piperidyl]methyl]piperazin-1-yl]methyl]cyclohexoxy]-1-piperidyl]-1-oxo-isoindolin-2-yl]piperidine-2,6-dione], the DC50 is greater than 500 nM. Regarding `COc1c(N2CCC(OC3CCC4(CC3)CN(c3cc5c(c(C(F)(F)F)c3)CN(c3cccc(C6(Cc7nncn7C)COC6)c3)C5=O)C4)CC2)ccc2c1CN(C1CCC(=O)NC1=O)C2=O` (stereo not drawn) [Example 149, 3-[4-methoxy-5-[4-[[2-[2-[3-[3-[(4-methyl-1,2,4-triazol-3-yl)methyl]oxetan-3-yl]phenyl]-3-oxo-7-(trifluoromethyl)isoindolin-5-yl]-2-azaspiro[3.5]nonan-7-yl]oxy]-1-piperidyl]-1-oxo-isoindolin-2-yl]piperidine-2,6-dione], the DC50 lay in the range of 5 to 50 nM and the Dmax lay within 35 to 70%.

Consider `Cc1cc(N2C[C@H]3C[C@@H]2CN3CC2CCC3(CC2)CN(c2cc4c(c(C(F)(F)F)c2)CN(c2cccc([C@]5(Cc6nncn6C)C[C@@H](C#N)C5)c2)C4=O)C3)c(F)c2c1C(=O)N(C1CCC(=O)NC1=O)C2` (stereo partly drawn) [Example 150, 3-[3-[6-[7-[[(1R,4R)-5-[2-(2,6-dioxo-3-piperidyl)-4-fluoro-7-methyl-1-oxo-isoindolin-5-yl]-2,5-diazabicyclo [2.2.1]heptan-2-yl]methyl]-2-azaspiro [3.5]nonan-2-yl]-1-oxo-4-(trifluoromethyl)isoindolin-2-yl]phenyl]-3-[(4-methyl-1,2,4-triazol-3-yl)methyl]cyclobutanecarbonitrile], for which the DC50 was greater than 500 nM. For the compound `CC1c2nc(N3CCC(O[C@H]4CC[C@H](CN5CCN(Cc6ccc7c(n6)C(=O)N(c6cccc(C8(Cc9nncn9C)COC8)c6)C7)CC5)CC4)CC3)ccc2C(=O)N1C1CCC(=O)NC1=O` (stereo partly drawn) [Example 151, 3-[7-methyl-2-[4-[4-[[4-[[6-[3-[3-[(4-methyl-1,2,4-triazol-3-yl)methyl]oxetan-3-yl]phenyl]-7-oxo-5H-pyrrolo [3,4-b]pyridin-2-yl]methyl]piperazin-1-yl]methyl]cyclohexoxy]-1-piperidyl]-5-oxo-7H-pyrrolo [3,4-b]pyridin-6-yl]piperidine-2,6-dione], the DC50 lay within 5 to 50 nM and the maximal degradation (Dmax) lay in the range of 35 to 70%. With `CC1c2nc(N3CCC(O[C@H]4CC[C@H](CN5CCN(Cc6cc7c(c(C(F)(F)F)c6)CN(c6cccc([C@]8(Cc9nncn9C)C[C@@H](C#N)C8)c6)C7=O)C(C)(C)C5)CC4)CC3)ccc2C(=O)N1C1CCC(=O)NC1=O` (stereo partly drawn) [Example 152, 3-[3-[6-[[4-[[4-[[1-[6-(2,6-dioxo-3-piperidyl)-7-methyl-5-oxo-7H-pyrrolo[3,4-b]pyridin-2-yl]-4-piperidyl]oxy]cyclohexyl]methyl]-2,2-dimethyl-piperazin-1-yl]methyl]-1-oxo-4-(trifluoromethyl)isoindolin-2-yl]phenyl]-3-[(4-methyl-1,2,4-triazol-3-yl)methyl]cyclobutanecarbonitrile], the DC50 is less than 5 nM and the Dmax lay in the range of 35 to 70%. On to `Cc1cc(N2CCC(CN3CCC4(CC3)CN(c3cc(C(F)(F)F)c5cn(-c6cccc([C@]7(Cc8nncn8C)C[C@@H](C#N)C7)c6)nc5c3)C4)CC2)c(F)c2c1C(=O)N(C1CCC(=O)NC1=O)C2` (stereo partly drawn) [Example 154, 3-[3-[6-[7-[[1-[2-(2,6-dioxo-3-piperidyl)-4-fluoro-7-methyl-1-oxo-isoindolin-5-yl]-4-piperidyl]methyl]-2,7-diazaspiro[3.5]nonan-2-yl]-4-(trifluoromethyl)indazol-2-yl]phenyl]-3-[(4-methyl-1,2,4-triazol-3-yl)methyl]cyclobutanecarbonitrile], for which the DC50 was greater than 500 nM. As for `Cn1cnnc1CC1(c2cccc(-n3cc4c(C(F)(F)F)cc(CN5CCC[C@H](CN6CCC[C@H](CN7CCN(c8ccc9c(c8F)CN(C8CCC(=O)NC8=O)C9=O)CC7)C6)C5)cc4n3)c2)COC1` (stereo partly drawn) [Example 155, 3-[4-fluoro-5-[4-[[(3S)-1-[[(3R)-1-[[2-[3-[3-[(4-methyl-1,2,4-triazol-3-yl)methyl]oxetan-3-yl]phenyl]-4-(trifluoromethyl)indazol-6-yl]methyl]-3-piperidyl]methyl]-3-piperidyl]methyl]piperazin-1-yl]-1-oxo-isoindolin-2-yl]piperidine-2,6-dione], the DC50 is greater than 500 nM.

With `Cn1cnnc1CC1(c2cccc(N3Cc4c(cc(CN5CCCC(OC6CCN(c7ccc8c(c7F)CN(C7CCC(=O)NC7=O)C8=O)CC6)C5)cc4C(F)(F)F)C3=O)c2)COC1` (stereo not drawn) [Example 156, 3-(4-fluoro-5-{4-[(1-{[2-(3-{3-[(4-methyl-4H-1,2,4-triazol-3-yl)methyl]oxetan-3-yl}phenyl)-3-oxo-7-(trifluoromethyl)-2,3-dihydro-1H-isoindol-5-yl]methyl}piperidin-3-yl)oxy]piperidin-1-yl}-1-oxo-2,3-dihydro-1H-isoindol-2-yl)piperidine-2,6-dione], the DC50 is greater than 500 nM.
